Tests used:
UGT [1] = assay: p-nitrophenol glucuronidation, mouse hepatic microsomes; assay type: in vitro ADME
Protocol: (§1) Microsomal preparation was as previously outlined. Individual livers were placed in beakers containing 1.15% KCl. All the procedures were carried out at 0–4 °C. The liver samples were minced and homogenised in buffer A (0.1 M Tris, 0.1 M potassium chloride, 1 mM EDTA, and 20 μM butylated hydroxytoluene, at pH = 7.4) using the Teflon-glass homogeniser (5–6 vertical passes). The samples were centrifuged for 20 min at 10,000× g. The supernatant was then transferred into another set of centrifuge tubes and spun for 60 min at 100,000× g. The pellet was resuspended in Buffer B (0.1 M potassium pyrophosphate, 1 mM EDTA, and 20 μM butylated hydroxytoluene, at pH = 7.4), homogenised and recentrifuged for 60 min at 100,000× g. Finally, the pellet was homogenised in 1–2 mL of Buffer C (10 mM Tris-HCl, 1 mM EDTA, and 4% glycerol (v/v)) and stored at […] until used. The protein concentration of the microsomes was determined using the Bicinchoninic acid (BCA) method.
(§2) The rate of p-nitrophenol glucuronidation was determined as previously reported. In short, the incubation mixture (500 µL in total) contained; 100 µL of 1 mg/mL microsomes, 50 µL of 1 M Tris-HCl (pH = 7.4), 20 µL of 0.25% (v/v) Triton-X 100, 50 µL of 50 mM MgCl2, 130 µL of double distilled water, 50 µL of 5 mM p-nitrophenol, 50 µL of the test compound, and 50 µL of uridine 5′-diphosphoglucuronic acid trisodium salt (UDPGA). The blank tubes had all components except UDPGA and microsomes; instead, 150 µL of 0.1 M phosphate buffer was added to equal the volume as the reaction mixture. The reaction mixture and the blank were incubated at 37 °C for 2 min. Then, 50 µL of 30 mM UDPGA was added to initiate the reaction which proceeded at 37 °C for 30 min (optimised incubation time). The reaction was stopped using 1 mL of 5% trichloroacetic acid (TCA). The tubes were centrifuged at 1800 g for 10 min and then 1 mL of supernatant was added to 250 µL of 2 M sodium hydroxide (NaOH). The absorbance was read at 405 nm. The sample reading was subtracted from the blank absorbance and divided by the extinction coefficient of p-nitrophenol ([…]) and the light path of the spectrophotometer (1 cm). The glucuronidation activities are expressed in µmol/mg/min and are the mean ± SEM of 3 independent experiments conducted in duplicate.

CYP3A [2] = assay: CYP3A catalytic activity (erythromycin-N-demethylation), rat hepatic microsomes; assay type: in vitro ADME; details: for activity at 30 min, 12.5 µM / activity at 30 min, 25 µM: liver microsomes, pH 7.4, probe erythromycin, read-out: CYP3A catalytic activity, % of Control
Protocol: as §1
(§3) CYP3A catalytic activity was determined using the erythromycin-N-demethylation activity assay as described previously. The reaction mixture (final volume of 1 mL and final protein concentration of 1 mg) contained 500 µL of microsomes in 0.1 M phosphate buffer (pH = 7.4), 400 µL of erythromycin buffer (0.45 mM), and 50 µL of the test compound was pre-warmed at 37 °C for 2 min. The reaction was initiated with 50 µL of 2.5 mM […] and incubated at 37 °C for 30 min (optimised incubation time). The reaction was stopped with the addition of 330 µL of 15% zinc sulphate. Tubes were vortexed and left for 5 min (at room temperature) and then 330 µL of saturated barium hydroxide was added. Tubes were further vortexed and left for 5 min (at room temperature). Tubes were then centrifuged at 1800 g for 10 min. To 830 µL of the supernatant, 330 µL of Nash reagent (30% (w/v) ammonium acetate, 0.4% (v/v) acetyl acetone) was added and further incubated at 60 °C for 30 min. The blank tube contained 330 µL of Nash reagent and 830 µL of Milli-Q-water. The tubes were centrifuged again at 1800× g for 10 min and the absorbance was read at 415 nm. Results presented are the mean ± SEM of 3 independent experiments conducted in duplicate.

UGT [3] = assay: p-nitrophenol glucuronidation, rat hepatic microsomes; assay type: in vitro ADME
Protocol: as §1, §2

UGT [4] = assay: p-nitrophenol glucuronidation, possum hepatic microsomes; assay type: in vitro ADME, possum (Trichosurus vulpecula)
Protocol: as §1, §2

CYP3A [5] = assay: CYP3A catalytic activity (erythromycin-N-demethylation), possum hepatic microsomes; assay type: in vitro ADME, possum (Trichosurus vulpecula); details: for activity at 30 min, 12.5 µM / activity at 30 min, 25 µM: possum (Trichosurus vulpecula), liver microsomes, pH 7.4, probe erythromycin, read-out: CYP3A catalytic activity, % of Control
Protocol: as §1, §3

CYP3A [6] = assay: CYP3A catalytic activity (erythromycin-N-demethylation), mouse hepatic microsomes; assay type: in vitro ADME; details: for activity at 30 min, 12.5 µM / activity at 30 min, 25 µM: liver microsomes, pH 7.4, probe erythromycin, read-out: CYP3A catalytic activity, % of Control
Protocol: as §1, §3

Structure (SMILES) | p-nitrophenol glucuronidation activity (UGT [1]; 12.5 µM) | p-nitrophenol glucuronidation, % of Control (UGT [1]; 12.5 µM) | p-nitrophenol glucuronidation activity (UGT [1]; 25 µM) | p-nitrophenol glucuronidation, % of Control (UGT [1]; 25 µM) | CYP3A catalytic activity (CYP3A [2]; 12.5 µM) | CYP3A catalytic activity (CYP3A [2]; 25 µM) | activity at 30 min, 12.5 µM (CYP3A [2]; 12.5 µM) | activity at 30 min, 25 µM (CYP3A [2]; 25 µM) | p-nitrophenol glucuronidation activity (UGT [3]; 12.5 µM) | p-nitrophenol glucuronidation, % of Control (UGT [3]; 12.5 µM) | p-nitrophenol glucuronidation activity (UGT [3]; 25 µM) | p-nitrophenol glucuronidation, % of Control (UGT [3]; 25 µM) | p-nitrophenol glucuronidation activity (UGT [4]; 12.5 µM) | p-nitrophenol glucuronidation, % of Control (UGT [4]; 12.5 µM) | p-nitrophenol glucuronidation activity (UGT [4]; 25 µM) | p-nitrophenol glucuronidation, % of Control (UGT [4]; 25 µM) | CYP3A catalytic activity (CYP3A [5]; 12.5 µM) | CYP3A catalytic activity (CYP3A [5]; 25 µM) | CYP3A catalytic activity (CYP3A [6]; 12.5 µM) | CYP3A catalytic activity (CYP3A [6]; 25 µM) | further results
CC1(O)CCC(C(C)(C)O)CC1 (stereo in doubt) [Trans-terpin, trans-terpin] | 2.44 ± 0.06 µmol/mg/min | 101.67 ± 0.74% | 2.33 ± 0.07 µmol/mg/min | 97.15 ± 1.80% | 0.59 ± 0.04 nmol/mg/min | 0.60 ± 0.06 nmol/mg/min | 98.3 ± 3.1% | 99.3 ± 1% | 2.87 ± 0.22 µmol/mg/min | 104.14 ± 9.44% | 2.50 ± 0.10 µmol/mg/min | 90.51 ± 3.63% | 3.90 ± 0.34 µmol/mg/min | 99.53 ± 0.84% | 3.91 ± 0.34 µmol/mg/min | 99.77 ± 0.60% | 0.41 ± 0.02 nmol/mg/min | 0.40 ± 0.03 nmol/mg/min | 0.71 ± 0.03 nmol/mg/min | 0.70 ± 0.03 nmol/mg/min | activity at 30 min, 12.5 µM (CYP3A [5]; 12.5 µM): 106 ± 1.42%; activity at 30 min, 25 µM (CYP3A [5]; 25 µM): 103 ± 6.11%; activity at 30 min, 12.5 µM (CYP3A [6]; 12.5 µM): 101 ± 2.7%; activity at 30 min, 25 µM (CYP3A [6]; 25 µM): 99.64 ± 0.93%
C[C@]12CC(=O)C[C@@]1(C)CC(=O)C2 [cis-1,5-dimethylbicyclo[3.3.0]octane-3,7-dione] | 2.56 ± 0.11 µmol/mg/min | 102.19 ± 2.82% | 2.40 ± 0.15 µmol/mg/min | 95.72 ± 2.42% | 0.59 ± 0.04 nmol/mg/min | 0.60 ± 0.06 nmol/mg/min | 98.3 ± 3.1% | 99.3 ± 1% | 2.58 ± 0.03 µmol/mg/min | 98.32 ± 3.38% | 2.56 ± 0.02 µmol/mg/min | 97.79 ± 2.87% | 3.77 ± 0.28 µmol/mg/min | 93.15 ± 4.58% | 3.78 ± 0.28 µmol/mg/min | 93.30 ± 4.13% | 0.41 ± 0.02 nmol/mg/min | 0.40 ± 0.03 nmol/mg/min | 0.71 ± 0.03 nmol/mg/min | 0.70 ± 0.03 nmol/mg/min | activity at 30 min, 12.5 µM (CYP3A [5]; 12.5 µM): 106 ± 1.42%; activity at 30 min, 25 µM (CYP3A [5]; 25 µM): 103 ± 6.11%; activity at 30 min, 12.5 µM (CYP3A [6]; 12.5 µM): 101 ± 2.7%; activity at 30 min, 25 µM (CYP3A [6]; 25 µM): 99.64 ± 0.93%
O=C(O)C1C2C=CC(C2)C1C(=O)O (stereo not drawn) [5-norbornen-2-endo-3-exo-dicarboxylic acid] | 2.23 ± 0.09 µmol/mg/min | 107.16 ± 4.97% | 2.23 ± 0.10 µmol/mg/min | 107.42 ± 3.63% | 0.65 ± 0.10 nmol/mg/min | 0.64 ± 0.09 nmol/mg/min | – | – | 2.85 ± 0.16 µmol/mg/min | 96.42 ± 1.23% | 2.92 ± 0.19 µmol/mg/min | 98.52 ± 2.14% | 3.90 ± 0.23 µmol/mg/min | 100.53 ± 2.09% | 3.91 ± 0.20 µmol/mg/min | 100.86 ± 1.90% | 0.39 ± 0.03 nmol/mg/min | 0.38 ± 0.02 nmol/mg/min | 0.73 ± 0.04 nmol/mg/min | 0.77 ± 0.03 nmol/mg/min | CYP3A catalytic activity, % of Control (CYP3A [2]; 12.5 µM): 107.52 ± 3.84%; CYP3A catalytic activity, % of Control (CYP3A [2]; 25 µM): 105.30 ± 2.08%; CYP3A catalytic activity, % of Control (CYP3A [5]; 12.5 µM): 98.90 ± 0.73%; CYP3A catalytic activity, % of Control (CYP3A [5]; 25 µM): 95.23 ± 3.85%; CYP3A catalytic activity, % of Control (CYP3A [6]; 12.5 µM): 96.48 ± 0.72%; CYP3A catalytic activity, % of Control (CYP3A [6]; 25 µM): 101.88 ± 0.75%
CC1(C)CCCCC1 [1,1-dimethylcyclohexane] | 2.48 ± 0.13 µmol/mg/min | 105.97 ± 2.23% | 2.19 ± 0.09 µmol/mg/min | 93.67 ± 1.67% | 0.61 ± 0.07 nmol/mg/min | 0.61 ± 0.10 nmol/mg/min | 103 ± 7.68% | 100 ± 1.66% | 2.59 ± 0.08 µmol/mg/min | 100.53 ± 2.39% | 2.58 ± 0.05 µmol/mg/min | 100.29 ± 3.55% | 4.08 ± 0.18 µmol/mg/min | 100.68 ± 0.60% | 4.03 ± 0.23 µmol/mg/min | 99.32 ± 0.90% | 0.38 ± 0.01 nmol/mg/min | 0.40 ± 0.02 nmol/mg/min | 0.73 ± 0.03 nmol/mg/min | 0.79 ± 0.04 nmol/mg/min | activity at 30 min, 12.5 µM (CYP3A [5]; 12.5 µM): 98 ± 1.28%; activity at 30 min, 25 µM (CYP3A [5]; 25 µM): 101.8 ± 0.61%; activity at 30 min, 12.5 µM (CYP3A [6]; 12.5 µM): 98.93 ± 0.94%; activity at 30 min, 25 µM (CYP3A [6]; 25 µM): 107 ± 1.13%
OC(Cn1cncn1)(Cn1cncn1)c1ccc(F)cc1F [fluconazole, reference compound] | – | – | – | – | – | – | – | – | – | – | – | – | – | – | – | – | – | – | – | – | decrease of hepatic p-nitrophenol glucuronidation (UGT [1]; 2.5 mM, positive control): 20 percent control
